Results from patent US20230128114A1, “METHODS AND COMPOSITIONS FOR TREATING OR PREVENTING AN INFLAMMATORY CONDITION” (priority 2020, published 2023).
Where two headings read alike, the source gives them in different places.

Legend:
[1] = system: human peripheral blood mononuclear cells (PBMCs) stimulated with bacterial lipopolysaccharide (LPS); test: Cytokine release from LPS-stimulated human PBMCs (checkerboard, Luminex), Bliss synergy; assay type: cell-based; conditions: PBMC
Description: The anti-inflammatory activity the combination of CBD and hydroxychloroquine was assessed by determining cytokine release from human peripheral blood mononuclear cells (PBMCs) stimulated with bacterial lipopolysaccharide (LPS) using a Luminex based assay. A 96-well microtitre plate-based checkerboard assay with seven concentrations (including the no drug control) of CBD and hydroxychloroquine were assessed in combination was used to determine the drug-drug interaction. Briefly, frozen PMBCs from two independent donors were thawed, diluted in culture medium, seeded into 96-well microtitre plates and incubated at 37° C., 5% CO2 for 1 hour prior to the addition of test compounds. After the addition of the test compounds the cells were returned to the incubator for 1 hour, after which LPS was added to the wells. Plates were incubated at 37° C., 5% CO2 for 24 hours. After 24 hours, cell culture supernatants were removed and analysed for cytokine levels using Luminex methodology according to manufacturers' instructions. All values had the vehicle background subtracted prior to further analysis. Three plates were set up in parallel using the PBMCs from the same donor. Inhibition of cytokine release was determined relative to the no treatment control (i.e., that was stimulated with LPS) and averaged across the three replicates. A cytotoxicity assay using AlmarBlue with the identical plate set up was performed in parallel.
(§1) Drug synergy was determined using the Bliss Independence method where the predicted effect of the drug combination is calculated using the equation: […]
Synergy values for each combination of drug concentrations were calculated using the Excess Over Bliss method (the difference between the observed and predicted inhibition) described by, e.g., Liu et al. (2018, Statistics in Biopharmaceutical Research, 10: 112-122, where a value greater than 0 is indicative of synergy and the higher the value the stronger the synergy.

[2] = system: LPS-induced pulmonary inflammation; test: LPS-induced pulmonary inflammation: BALF cytokines, synergy analysis; assay type: in vivo, C57BL/B6 mice; conditions: CBD 1 mg/kg, HCQ 25 mg/kg, alone or combined; observed
[3] = system: LPS-induced sepsis; test: LPS-induced sepsis in mice, intraperitoneal administration: serum immune marker panel (Luminex/ELISA); assay type: in vivo, C57BL/6 mice
Description: (§2) Male C57BL/6 mice weighing 10-20 g were used. Vehicle and active agents (i.e., CBD and hydroxychloroquine) alone or in combination were administered intraperitoneally (IP) (Table 4) or orally (Table 5) at 1 hour before LPS (100 μg/100 μL/mouse) injected intravenously (IV). At 2 hours after LPS injection, blood was collected from all mice by cardiac puncture, sera processed and assayed for biomarkers using either the Th17-plex for IL-1β, IL-2, IL-10, IL-12 (p70), IFN-γ and TNF-α by Luminex, plus IL-6 and D-dimer by ELISA, or the 23-plex for IL-1α, IL-1β, IL-2, IL-3, IL-4, IL-5, IL-6, IL-9, IL-10, IL-12(p40), IL-12(p70), IL-13, IL-17A, Eotaxin, G-CSF, GM-CSF, IFN-γ, KC, MCP-1(MCAF), MIP-1α, MIP-1β, RANTES, and TNF-α by Luminex, plus IL-6 by ELISA. ANOVA followed by Dunnett's test was applied for comparison between vehicle and treatment groups. p<0.05 is considered significant.

[4] = system: LPS-induced production of inflammatory cytokines; test: LPS-induced sepsis in mice: synergy analysis (relative inhibition of cytokine release, Excess over Bliss); assay type: in vivo, C57BL/6 mice
Description: as §2
For synergy analysis, data were baseline subtracted using the cytokine levels of sham treated mice (i.e., no LPS injection), before normalising the values for each cytokine relative to maximum values across the groups. The normalised values were used to calculate the relative inhibition where a value of 1 represents complete inhibition and a value of 0 represents no inhibition. Synergy was calculated using the statistical methods described elsewhere herein.
as §1

[5] = CBD 1, 5, 10, 25, 50 and 100 mg/kg IP
[6] = CBD 10 mg/kg alone, 1 = complete inhibition
[7] = CBD 10 mg/kg, HCQ 100 mg/kg, alone or combined, observed

C=C(C)[C@@H]1CCC(C)=C[C@H]1c1c(O)cc(CCCCC)cc1O [CBD, cannabidiol]
inhibition at 5 µg/mL ([1]; Donor 1, CBD 5.00 μg/mL alone, read-out: FIE (fractional inhibitory effect), IL-1α release): 40% | inhibition at 5 µg/mL ([1]; Donor 1, CBD 5.00 μg/mL alone, read-out: FIE (fractional inhibitory effect), IL-1β release): 38% | inhibition at 5 µg/mL ([1]; Donor 1, CBD 5.00 μg/mL alone, read-out: FIE (fractional inhibitory effect), IL-6 release): 8% | inhibition at 5 µg/mL ([1]; Donor 1, CBD 5.00 μg/mL alone, read-out: FIE (fractional inhibitory effect), MIP-1α release): 12% | inhibition at 5 µg/mL ([1]; Donor 1, CBD 5.00 μg/mL alone, read-out: FIE (fractional inhibitory effect), TNF-α release): 5% | inhibition at 5 µg/mL ([1]; Donor 2, CBD 5.00 μg/mL alone, read-out: FIE (fractional inhibitory effect), IL-1α release): 28% | inhibition at 5 µg/mL ([1]; Donor 2, CBD 5.00 μg/mL alone, read-out: FIE (fractional inhibitory effect), IL-1β release): 13% | inhibition at 5 µg/mL ([1]; Donor 2, CBD 5.00 μg/mL alone, read-out: FIE (fractional inhibitory effect), IL-6 release): 9% | inhibition at 5 µg/mL ([1]; Donor 2, CBD 5.00 μg/mL alone, read-out: FIE (fractional inhibitory effect), MIP-1α release): 0% | inhibition at 5 µg/mL ([1]; Donor 2, CBD 5.00 μg/mL alone, read-out: FIE (fractional inhibitory effect), TNF-α release): 7% | IL-6, relative inhibition of cytokine release (BALF) [2]: 0.15 | IFN-γ level vs vehicle group ([3]; CBD 5 mg/kg IP): Moderate reductions | IFN-γ level vs vehicle group ([3]; CBD 10 mg/kg IP): moderate reduction | IL-1β level vs vehicle group ([3]; CBD 10 mg/kg IP): moderate reduction | IL-2 level vs vehicle group ([3]; CBD 10 mg/kg IP): moderate reduction | IL-12(p70) level vs vehicle group ([3]; CBD 10 mg/kg IP): moderate reduction | TNF-α level vs vehicle group ([3]; CBD 10 mg/kg IP): moderate reduction | IFN-γ level vs vehicle group ([3]; CBD 25 mg/kg IP): Moderate reductions | TNF-α level vs vehicle group ([3]; CBD 25 mg/kg IP): Moderate reductions | IL-1β level vs vehicle group ([3]; CBD 100 mg/kg IP): significant (p<0.05) increase | IL-10 level vs vehicle group ([3]; CBD 100 mg/kg IP): significant (p<0.05) increase | LPS-induced D-dimer level vs vehicle control [3, 5]: dose-dependent increase | LPS-induced IL-1β level vs vehicle control [3, 5]: dose-dependent increase | LPS-induced IL-10 level vs vehicle control [3, 5]: dose-dependent increase | Shape of dose response in the reduction of LPS-induced cytokine levels ([3]; CBD 1-100 mg/kg IP): bell-shaped dose response curve | Relative inhibition of IFN-γ release in vivo [4, 6]: 0.00 | Relative inhibition of IL-6 release in vivo [4, 6]: 0.14 | Relative inhibition of IL-12(p70) release in vivo [4, 6]: 0.00 | Relative inhibition of TNF-α release in vivo [4, 6]: 0.00 | IFN-γ, relative inhibition of cytokine release [4, 7]: 0.00 | IL-1β, relative inhibition of cytokine release [4, 7]: 0.34 | IL-6, relative inhibition of cytokine release [4, 7]: 0.14 | IL-12(p70), relative inhibition of cytokine release [4, 7]: 0.00 | TNF-α, relative inhibition of cytokine release [4, 7]: 0.00 | Relative inhibition of IL-6 release in vivo ([4]; CBD 25 mg/kg alone): 0.03 | IL-6, relative inhibition of cytokine release ([4]; CBD 25 mg/kg, HCQ 100 mg/kg, alone or combined, observed): 0.03
